Measured values published in PubChem BioAssay (NCI).
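GI50: concentration for 50% inhibition of growth. TGI marks complete inhibition of growth.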

What was measured:
Test in all cases: NCI-60 cell line screen, 384-well format
A498 renal = tested on: A498 renal
OVCAR-4 ovarian = tested on: OVCAR-4 ovarian
UACC-257 melanoma = tested on: UACC-257 melanoma
K-562 leukemia = tested on: K-562 leukemia
PC-3 prostate = tested on: PC-3 prostate
KM12 colon = tested on: KM12 colon
HCT-116 colon = tested on: HCT-116 colon
DU-145 prostate = tested on: DU-145 prostate
SK-OV-3 ovarian = tested on: SK-OV-3 ovarian
MDA-MB-468 breast = tested on: MDA-MB-468 breast
BT-549 breast = tested on: BT-549 breast
CCRF-CEM leukemia = tested on: CCRF-CEM leukemia
MCF7 breast = tested on: MCF7 breast
COLO 205 colon = tested on: COLO 205 colon
RPMI-8226 leukemia = tested on: RPMI-8226 leukemia
NCI-H23 lung = tested on: NCI-H23 lung
M14 melanoma = tested on: M14 melanoma
MALME-3M melanoma = tested on: MALME-3M melanoma
IGROV1 ovarian = tested on: IGROV1 ovarian
ACHN renal = tested on: ACHN renal
A549 NSCLC = tested on: A549 NSCLC
T-47D breast = tested on: T-47D breast
OVCAR-3 ovarian = tested on: OVCAR-3 ovarian
LOX IMVI melanoma = tested on: LOX IMVI melanoma
NCI-H460 NSCLC = tested on: NCI-H460 NSCLC
MDA-MB-435 melanoma = tested on: MDA-MB-435 melanoma
HOP-92 NSCLC = tested on: HOP-92 NSCLC
OVCAR-8 ovarian = tested on: OVCAR-8 ovarian
SF-268 CNS = tested on: SF-268 CNS
SN12C renal = tested on: SN12C renal
NCI/ADR-RES ovarian = tested on: NCI/ADR-RES ovarian
RXF 393 renal = tested on: RXF 393 renal
NCI-H322M lung = tested on: NCI-H322M lung
SW-620 colon = tested on: SW-620 colon
NCI-H226 lung = tested on: NCI-H226 lung
OVCAR-5 ovarian = tested on: OVCAR-5 ovarian
UACC-62 melanoma = tested on: UACC-62 melanoma
HT29 colon = tested on: HT29 colon
UO-31 renal = tested on: UO-31 renal
HL-60(TB) leukemia = tested on: HL-60(TB) leukemia
TK-10 renal = tested on: TK-10 renal
HCC-2998 colon = tested on: HCC-2998 colon
CAKI-1 renal = tested on: CAKI-1 renal
SF-539 CNS = tested on: SF-539 CNS
SR leukemia = tested on: SR leukemia
SK-MEL-2 melanoma = tested on: SK-MEL-2 melanoma
U251 glioblastoma = tested on: U251 glioblastoma
SF-295 CNS = tested on: SF-295 CNS
MOLT-4 leukemia = tested on: MOLT-4 leukemia
SNB-19 CNS = tested on: SNB-19 CNS
SK-MEL-5 melanoma = tested on: SK-MEL-5 melanoma
HOP-62 NSCLC = tested on: HOP-62 NSCLC
HCT-15 colon = tested on: HCT-15 colon
MDA-MB-231 breast = tested on: MDA-MB-231 breast
SK-MEL-28 melanoma = tested on: SK-MEL-28 melanoma
NCI-H522 lung = tested on: NCI-H522 lung
786-0 renal = tested on: 786-0 renal

**Q.** Which results are given for Cn1ncnc1[C@@H]1c2n[nH]c(=O)c3cc(F)cc(c23)N[C@H]1c1ccc(F)cc1?
**A.** GI50 (A498 renal): > 100 µM; TGI (A498 renal): > 100 µM; GI50 (OVCAR-4 ovarian): > 100 µM; TGI (OVCAR-4 ovarian): > 100 µM; GI50 (UACC-257 melanoma): > 100 µM; TGI (UACC-257 melanoma): > 100 µM; GI50 (K-562 leukemia): > 100 µM; TGI (K-562 leukemia): > 100 µM; GI50 (PC-3 prostate): > 100 µM; TGI (PC-3 prostate): > 100 µM; GI50 (KM12 colon): > 100 µM; TGI (KM12 colon): > 100 µM; GI50 (HCT-116 colon): 74.9 µM; TGI (HCT-116 colon): > 100 µM; GI50 (DU-145 prostate): > 100 µM; TGI (DU-145 prostate): > 100 µM; GI50 (SK-OV-3 ovarian): > 100 µM; TGI (SK-OV-3 ovarian): > 100 µM; GI50 (MDA-MB-468 breast): 57.1 µM; TGI (MDA-MB-468 breast): > 100 µM; GI50 (BT-549 breast): > 100 µM; TGI (BT-549 breast): > 100 µM; GI50 (CCRF-CEM leukemia): 40.9 µM; TGI (CCRF-CEM leukemia): > 100 µM; GI50 (MCF7 breast): > 100 µM; TGI (MCF7 breast): > 100 µM; GI50 (COLO 205 colon): > 100 µM; TGI (COLO 205 colon): > 100 µM; GI50 (RPMI-8226 leukemia): 78.9 µM; TGI (RPMI-8226 leukemia): > 100 µM; GI50 (NCI-H23 lung): > 100 µM; TGI (NCI-H23 lung): > 100 µM; GI50 (M14 melanoma): > 100 µM; TGI (M14 melanoma): > 100 µM; GI50 (MALME-3M melanoma): > 100 µM; TGI (MALME-3M melanoma): > 100 µM; GI50 (IGROV1 ovarian): > 100 µM; TGI (IGROV1 ovarian): > 100 µM; GI50 (ACHN renal): > 100 µM; TGI (ACHN renal): > 100 µM; GI50 (A549 NSCLC): > 100 µM; TGI (A549 NSCLC): > 100 µM; GI50 (T-47D breast): > 100 µM; TGI (T-47D breast): > 100 µM; GI50 (OVCAR-3 ovarian): > 100 µM; TGI (OVCAR-3 ovarian): > 100 µM; GI50 (LOX IMVI melanoma): > 100 µM; TGI (LOX IMVI melanoma): > 100 µM; GI50 (NCI-H460 NSCLC): 17.3 µM; TGI (NCI-H460 NSCLC): > 100 µM; GI50 (MDA-MB-435 melanoma): > 100 µM; TGI (MDA-MB-435 melanoma): > 100 µM; GI50 (HOP-92 NSCLC): > 100 µM; TGI (HOP-92 NSCLC): > 100 µM; GI50 (OVCAR-8 ovarian): > 100 µM; TGI (OVCAR-8 ovarian): > 100 µM; GI50 (SF-268 CNS): > 100 µM; TGI (SF-268 CNS): > 100 µM; GI50 (SN12C renal): > 100 µM; TGI (SN12C renal): > 100 µM; GI50 (NCI/ADR-RES ovarian): > 100 µM; TGI (NCI/ADR-RES ovarian): > 100 µM; GI50 (RXF 393 renal): 52.3 µM; TGI (RXF 393 renal): > 100 µM; GI50 (NCI-H322M lung): > 100 µM; TGI (NCI-H322M lung): > 100 µM; GI50 (SW-620 colon): 70.9 µM; TGI (SW-620 colon): > 100 µM; GI50 (NCI-H226 lung): > 100 µM; TGI (NCI-H226 lung): > 100 µM; GI50 (OVCAR-5 ovarian): > 100 µM; TGI (OVCAR-5 ovarian): > 100 µM; GI50 (UACC-62 melanoma): > 100 µM; TGI (UACC-62 melanoma): > 100 µM; GI50 (HT29 colon): > 100 µM; TGI (HT29 colon): > 100 µM; GI50 (UO-31 renal): > 100 µM; TGI (UO-31 renal): > 100 µM; GI50 (HL-60(TB) leukemia): > 100 µM; TGI (HL-60(TB) leukemia): > 100 µM; GI50 (TK-10 renal): > 100 µM; TGI (TK-10 renal): > 100 µM; GI50 (HCC-2998 colon): 43.1 µM; TGI (HCC-2998 colon): > 100 µM; GI50 (CAKI-1 renal): > 100 µM; TGI (CAKI-1 renal): > 100 µM; GI50 (SF-539 CNS): > 100 µM; TGI (SF-539 CNS): > 100 µM; GI50 (SR leukemia): 2.61 µM; TGI (SR leukemia): 11.6 µM; GI50 (SK-MEL-2 melanoma): > 100 µM; TGI (SK-MEL-2 melanoma): > 100 µM; GI50 (U251 glioblastoma): > 100 µM; TGI (U251 glioblastoma): > 100 µM; GI50 (SF-295 CNS): > 100 µM; TGI (SF-295 CNS): > 100 µM; GI50 (MOLT-4 leukemia): 11.4 µM; TGI (MOLT-4 leukemia): 24.6 µM; GI50 (SNB-19 CNS): > 100 µM; TGI (SNB-19 CNS): > 100 µM; GI50 (SK-MEL-5 melanoma): > 100 µM; TGI (SK-MEL-5 melanoma): > 100 µM; GI50 (HOP-62 NSCLC): > 100 µM; TGI (HOP-62 NSCLC): > 100 µM; GI50 (HCT-15 colon): > 100 µM; TGI (HCT-15 colon): > 100 µM; GI50 (MDA-MB-231 breast): > 100 µM; TGI (MDA-MB-231 breast): > 100 µM; GI50 (SK-MEL-28 melanoma): > 100 µM; TGI (SK-MEL-28 melanoma): > 100 µM; GI50 (NCI-H522 lung): 97.7 µM; TGI (NCI-H522 lung): > 100 µM; GI50 ([…]-0 renal): > 100 µM; TGI (786-0 renal): > 100 µM
